Nine molecules from patent publication US9938258B2 (Karyopharm Therapeutics Inc., priority 2012, dated 2018) can be followed below.

The term IC50 denotes the concentration needed to halve the response being measured.

In assay [1] the test system is MS751 cells. Briefly: MTT cell proliferation assay, MS751. The format is cell-based, human. The note with it: Homo sapiens. The procedure, abridged: (§1)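 Read-out: MTT reduction to formazan, solubilised and measured at 490 nm after ~4 h with MTT; inhibition (%) = (1-(ODo/OD))×100 relative to negative control. Seeding was 5,000-10,000 cells/well with overnight attachment. Eight test concentrations spanned 1 nM-30 μM; mostly duplicate, mean ± SE.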
In general terms: Formazan colour is commonly taken as a measure of viable cells.

In assay [2] the test system is Z138 cells. Briefly: MTT cell proliferation assay, Z138. The format is cell-based. The note with it: Homo sapiens. In outline:
as §1

In assay [3] the test system is 3T3 cells. Briefly: MTT cell proliferation assay, 3T3. It is filed as cell-based, mouse. The note with it: Mus musculus. In outline:
as §1

Setting [4] is: MS751, MS751 cells, eight concentrations 1 nM to 30 μM, incubation approximately 64-72 hours, read-out: MTT Assay IC50, MS751.
[5] abbreviates: Z-138, Z138 cells, eight concentrations 1 nM to 30 μM, incubation approximately 64-72 hours, read-out: MTT Assay IC50, Z138.
The mark [6] stands for this setting: NIH3T3, 3T3 cells, eight concentrations 1 nM to 30 μM, incubation approximately 64-72 hours, read-out: MTT Assay IC50, 3T3.
Setting [7] is: MS751, MS751 cells, approximately 64-72 hours incubation, read-out: MTT Assay IC50, MS751.
Setting [8] is: Z-138, Z138 cells, approximately 64-72 hours incubation, read-out: MTT Assay IC50, Z138.
The mark [9] stands for this setting: NIH3T3, 3T3 cells, approximately 64-72 hours incubation, read-out: MTT Assay IC50, 3T3.

Where two headings read alike, the source gives them in different places. A value given as a limit tells only on which side of the number the result lay.

For the molecule `CC(=O)c1ccc(-c2cc(Cl)c3c(c2)CC(CNC(=O)/C=C/c2cnc(N)nc2)O3)s1` (stereo not drawn) [Compound 104, (E)-N-((5-(5-acetylthiophen-2-yl)-7-chloro-2,3-dihydrobenzofuran-2-yl)methyl)-3-(2-aminopyrimidin-5-yl)acrylamide], the IC50 in assay [1] (setting [4]), in assay [2] (setting [5]) and in assay [3] (setting [6]) was greater than 30 µM throughout.

On to `Nc1ccc(/C=C/C(=O)NCC2Cc3c(-c4cccc(C(=O)N5CCOCC5)c4)ccc(Cl)c3O2)cn1` (stereo not drawn) [Compound 915, (E)-3-(6-aminopyridin-3-yl)-N-((7-chloro-4-(3-(morpholine-4-carbonyl)phenyl)-2,3-dihydrobenzofuran-2-yl)methyl)acrylamide], for which the IC50 was less than 0.1 µM in assay [1] (setting [7]), less than 0.1 µM in assay [2] (setting [8]) and 0.1 to 5 µM in assay [3] (setting [9]).

Consider `Nc1ccc(CNC(=O)/C=C/C2Cc3cc(-c4ccc(C(=O)N5CC[C@H](F)C5)cc4)cc(Cl)c3O2)cn1` (stereo partly drawn) [Compound 359, (E)-N-((6-Aminopyridin-3-yl)methyl)-3-(7-chloro-5-(4-((S)-3-fluoropyrrolidine-1-carbonyl)phenyl)-2,3-dihydrobenzofuran-2-yl)acrylamide], for which the IC50 in assay [1] (setting [7]) is 0.1 to 5 µM; in assay [2] (setting [8]), greater than 30 µM; in assay [3] (setting [9]), 5 to 30 µM.

Regarding `CC(=O)c1ccc(-c2cc(Cl)c3c(c2)CC(CNC(=O)/C=C/c2cccnn2)O3)o1` (stereo not drawn) [Compound 314, (E)-N-((5-(5-acetylfuran-2-yl)-7-chloro-2,3-dihydrobenzofuran-2-yl)methyl)-3-(pyridazin-3-yl)acrylamide], the IC50 in assay [1] (setting [7]), in assay [2] (setting [8]) and in assay [3] (setting [9]) was 0.1 to 5 µM throughout.

In the case of `CC(=O)c1ccc(-c2cc(Cl)c3c(c2)CC(CNC(=O)/C=C/c2c(C)nn(C)c2Cl)O3)s1` (stereo not drawn) [Compound 160, (E)-N-((5-(5-acetylthiophen-2-yl)-7-chloro-2,3-dihydrobenzofuran-2-yl)methyl)-3-(5-chloro-1,3-dimethyl-1H-pyrazol-4-yl)acrylamide], the IC50 in assay [1] (setting [4]), in assay [2] (setting [5]) and in assay [3] (setting [6]) was greater than 30 µM in each case.

With `CC(=O)c1ccc(-c2cc(Cl)c3c(c2)CC(CNC(=O)/C(C#N)=C/c2ccoc2)O3)s1` (stereo not drawn) [Compound 286, (E)-N-((5-(5-acetylthiophen-2-yl)-7-chloro-2,3-dihydrobenzofuran-2-yl)methyl)-2-cyano-3-(furan-3-yl) acrylamide], the IC50 in assay [1] (MS751, read-out: MTT Assay IC50, MS751) is 5 to 30 µM; in assay [2] (Z-138, read-out: MTT Assay IC50, Z138), 5 to 30 µM; in assay [3] (NIH3T3, read-out: MTT Assay IC50, 3T3), greater than 30 µM.

Consider `CC(=O)c1ccc(-c2cc(Cl)c3c(c2)CC(CNC(=O)/C=C/c2ccn(C)c2)O3)s1` (stereo not drawn) [Compound 213, (E)-N-((5-(5-acetylthiophen-2-yl)-7-chloro-2,3-dihydrobenzofuran-2-yl)methyl)-3-(1-methyl-1H-pyrrol-3-yl)acrylamide], for which the IC50 in assay [1] (setting [7]), in assay [2] (setting [8]) and in assay [3] (setting [9]) was greater than 30 µM in each case.

Regarding `CC(=O)c1ccc(-c2cc(Cl)c3c(c2)CC(CNC(=O)CCc2cnc(N)c(Br)c2)O3)s1` (stereo not drawn) [Compound 371, N-((5-(5-acetylthiophen-2-yl)-7-chloro-2,3-dihydrobenzofuran-2-yl)methyl)-3-(6-amino-5-bromopyridin-3-yl)propanamide], the half-maximal inhibitory concentration (IC50) in assay [1] (setting [7]) is 5 to 30 µM; in assay [2] (setting [8]), 5 to 30 µM; in assay [3] (setting [9]) it was greater than 30 µM.

For `Nc1ccc(/C=C/C(=O)NCC2Cc3cc(-c4cccc(C(=O)N5CCOCC5)c4)cc(Cl)c3O2)cn1` (stereo not drawn) [Compound 239, (E)-3-(6-aminopyridin-3-yl)-N-((7-chloro-5-(3-(morpholine-4-carbonyl)phenyl)-2,3-dihydrobenzofuran-2-yl)methyl)acrylamide], the concentration for half-maximal inhibition (IC50) in assay [1] (setting [7]) was less than 0.1 µM; in assay [2] (setting [8]), less than 0.1 µM; in assay [3] (setting [9]), 0.1 to 5 µM.
